Measurements taken from paper PMC10343272, “Synthesis and Evaluation of ^99mTc-Labeled PSMA-Targeted Tracers Based on the Lys-Urea-Aad Pharmacophore for Detecting Prostate Cancer with Single Photon Emission Computed Tomography” (Molecules, 2023).
Like-named read-outs stand apart in the source and are kept apart here.

Assays:
PSMA [1] = biological target: T1, PSMA (Homo sapiens, UniProt Q04609); conditions: previous observation; cited from earlier work
T1 construct: host or cells: LNCaP cells

PSMA [2] = biological target: T1, PSMA; assay: In vitro competition binding assay ([^18F]DCFPyL displacement on LNCaP cells); conditions: inhibition of [^18F]DCFPyL binding to PSMA-expressing LNCaP cells, n = 3
Description: All tested PSMA-targeted ligands inhibited the binding of [^18F]DCFPyL to PSMA-expressing LNCaP cells in a concentration-dependent manner (Figure 2, n = 3).
The in vitro competition binding assays were performed following our previously published procedures. Briefly, LNCaP cells in RMPI medium with FBS, penicillin, and streptomycin were plated onto 24-well poly-D-lysine coated plates at 200,000 cells/well 48 h prior to binding assay. The growth medium was removed and the cells were rinsed with HEPES-buffered saline (50 mM HEPES, pH 7.5, 0.9% NaCl) two times before 400 µL of HEPES buffer were added to each well. Varying concentrations of PSMA-targeted ligands (50 µL) were added to each well in triplicate before adding 0.1 nmol/50 µL of [^18F]DCFPyL. After the additions, plates were incubated and swirled at 37 °C. After 1 h incubation, the solutions were removed, and cells were washed with HEPES-buffered saline twice. Finally, 400 µL of 0.25% trypsin solution were added to each well. After 10 min incubation, cells were collected for counting using a PerkinElmer (Waltham, MA, USA) Wizard2 2480 automatic gamma counter. The Ki values were analyzed with GraphPad (San Diego, CA, USA) Prism 7 software using nonlinear regression fit.

T1 sequence (Q04609 whole entry): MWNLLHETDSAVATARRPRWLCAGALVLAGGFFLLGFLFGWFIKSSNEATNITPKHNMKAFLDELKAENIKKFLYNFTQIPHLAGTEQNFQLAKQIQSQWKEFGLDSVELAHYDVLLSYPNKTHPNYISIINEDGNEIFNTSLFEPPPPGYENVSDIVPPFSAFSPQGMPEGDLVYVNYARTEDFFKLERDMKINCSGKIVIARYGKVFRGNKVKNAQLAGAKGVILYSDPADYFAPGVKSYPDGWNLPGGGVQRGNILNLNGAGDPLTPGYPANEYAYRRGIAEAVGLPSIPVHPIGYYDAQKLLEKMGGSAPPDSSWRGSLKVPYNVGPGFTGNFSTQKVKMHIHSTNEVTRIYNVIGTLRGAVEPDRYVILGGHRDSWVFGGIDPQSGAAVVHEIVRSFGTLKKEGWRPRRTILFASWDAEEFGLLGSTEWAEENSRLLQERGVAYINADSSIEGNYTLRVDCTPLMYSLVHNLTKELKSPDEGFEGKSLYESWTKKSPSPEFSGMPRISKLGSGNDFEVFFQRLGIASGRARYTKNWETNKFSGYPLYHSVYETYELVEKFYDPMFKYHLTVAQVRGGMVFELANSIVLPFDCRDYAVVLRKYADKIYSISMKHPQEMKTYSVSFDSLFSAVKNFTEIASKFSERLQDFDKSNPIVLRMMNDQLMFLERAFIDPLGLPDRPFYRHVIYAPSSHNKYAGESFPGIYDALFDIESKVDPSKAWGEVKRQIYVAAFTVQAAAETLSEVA

| SMILES | Ki (PSMA [1]) | Ki (PSMA [2]) |
| --- | --- | --- |
| O=C(O)CCC[C@H](NC(=O)N[C@@H](CCCCNC(=O)[C@H](Cc1c2ccccc2cc2ccccc12)NC(=O)[C@H]1CC[C@H](CNC(=O)CN2CCN(CC(=O)O)CCN(CC(=O)O)CCN(CC(=O)O)CC2)CC1)C(=O)O)C(=O)O [HTK03149] | 6.99 nM | – |
| NNc1ccc(C(=O)N[C@@H](Cc2ccc3ccccc3c2)C(=O)NCCCC[C@H](NC(=O)N[C@@H](CCCC(=O)O)C(=O)O)C(=O)O)cn1 [KL01127] | – | 8.96 ± 0.58 nM |
| NNc1ccc(C(=O)N[C@@H](Cc2ccc3ccccc3c2)C(=O)NCCCC[C@H](NC(=O)N[C@@H](CCC(=O)O)C(=O)O)C(=O)O)cn1 [HYNIC-iPSMA, reference compound] | – | 3.11 nM |
| NNc1ccc(C(=O)NC[C@H]2CC[C@H](C(=O)N[C@@H](Cc3c4ccccc4cc4ccccc34)C(=O)NCCCC[C@H](NC(=O)N[C@@H](CCCC(=O)O)C(=O)O)C(=O)O)CC2)cn1 [HTK03180] | – | 11.6 ± 1.5 nM |
| NNc1ccc(C(=O)NC[C@H]2CC[C@H](C(=O)N[C@@H](Cc3c4ccccc4cc4ccccc34)C(=O)NCCCC[C@H](NC(=O)N[C@@H](CCC(=O)O)C(=O)O)C(=O)O)CC2)cn1 [KL01099] | – | 10.7 nM |
